From US11795147B2, “Modulators of complex I” (Boehringer Ingelheim International GmbH, priority 2019, dated 2023)

Target: Complex I
Experiment: Assay A: Determination of Complex I mediated ROS-inhibition (CI)
Assay type: biochemical
Settings: read-out: CI IC50; ROS generation by Complex I purified from bovine heart, Amplex Red/horse radish peroxidase readout, 8 point concentration-response

Row | Structure (SMILES) | IC50 [nM]
1 | CC(C)N1CCN/C(=C2\C(=O)N(C)c3ccc(N4CCCC4)cc32)CC1 [Compound 110] | 264
2 | CC(Nc1ccc2c(c1)/C(=C1\COCCN1)C(=O)N2C1CCOCC1)C1CCC1 (stereo not drawn) [Compound 148] | 39
3 | O=C1/C(=C2/COCCN2)c2cc(NC3CCOCC3F)ccc2N1C1CCOCC1 (stereo not drawn) [Compound 80] | 84
4 | CNc1ccc2c(c1)/C(=C1\CCCN1)C(=O)N2C1CCOCC1 [Compound 43] | 11
5 | COCC(C)Nc1ccc2c(c1)/C(=C1\COCCN1)C(=O)N2C1CCOCC1 (stereo not drawn) [Compound 99] | 451
6 | O=C1/C(=C2/COCCN2)c2cc(N3CCOCC3)ccc2N1C1CCOCC1 [Compound 4] | 242
7 | CN(C)c1ccc2c(c1)/C(=C1\CCCN1)C(=O)N2C [Compound 1] | 60
8 | CC(C)Nc1ccc2c(c1)/C(=C1\COCCN1)C(=O)N2C1COC1 [Compound 135] | 82
9 | CC1CCCC1Nc1ccc2c(c1)/C(=C1\COCCN1)C(=O)N2C1CCOCC1 (stereo not drawn) [Compound 102] | 109
10 | COC1COCCC1Nc1ccc2c(c1)/C(=C1\COCCN1)C(=O)N2C(C)C (stereo not drawn) [Compound 16] | 313
11 | CC(=O)N1CCN/C(=C2\C(=O)N(C3CCOCC3)c3ccc(NC(C)C)cc32)C1 [Compound 111] | 119
12 | CC(C)Nc1ccc2c(c1)/C(=C1\COCCN1)C(=O)N2C [Compound 63] | 22
13 | CC(C)Nc1ccc2c(c1)/C(=C1\CCOCCN1)C(=O)N2C(C)C [Compound 82] | 91
14 | CC(C)Nc1ccc2c(c1)/C(=C1\COCCN1)C(=O)N2C1COCCOC1 [Compound 26] | 20
15 | CN1CCN/C(=C2\C(=O)N(C)c3ccc(N4CCCC4)cc32)CC1 [Compound 64] | 286
16 | CN(C)c1ccc2c(c1)/C(=C1\COCCN1)C(=O)N2C [Compound 2] | 80
17 | CC(C)Nc1ccc2c(c1)/C(=C1\CN(C3COC3)CCN1)C(=O)N2C1CCOCC1 [Compound 5] | 81
18 | CC(Nc1ccc2c(c1)/C(=C1\COCCN1)C(=O)N2C(C)C)c1ccncc1 (stereo not drawn) [Compound 143] | 79
19 | CC(C)Nc1ccc2c(c1)/C(=C1\CN(C(C)C)CCN1)C(=O)N2C1CCOCC1 [Compound 46] | 86
20 | O=C1/C(=C2/COCCN2)c2cc(NC3CCC3)ccc2N1C1CCOC1 (stereo not drawn) [Compound 14] | 101
21 | CC(C)Nc1ccc2c(c1)C(=C1CCOCC1)C(=O)N2C(C)C [Compound 47] | 153
22 | CN1C(=O)/C(=C2/CCN(C3CCOC3)CCN2)c2cc(N3CCCC3)ccc21 (stereo not drawn) [Compound 155] | 264

Row | Structure (SMILES) | IC50 [nM]
23 | CC(C)N1C(=O)C(=C2CCOCC2)c2cc(NC3CCOC3)ccc21 (stereo not drawn) [Compound 160] | 829
24 | COCC(C)Nc1ccc2c(c1)/C(=C1\COCCN1)C(=O)N2C1CCOC1 (stereo not drawn) [Compound 52] | 61
25 | COCC(C)N1C(=O)/C(=C2/COCCN2)c2cc(N3CCC(O)C3)ccc21 (stereo not drawn) [Compound 119] | 422
26 | CC(C)N1C(=O)/C(=C2/CCCN2C)c2cc(NC3CCC3)ccc21 [Compound 161] | 957
27 | CC(C)N1CCC2(CC1)CN/C(=C1\C(=O)N(C(C)C)c3ccc(N4CCCC4)cc31)CO2 [Compound 91] | 242
28 | CC(=O)N1CCC2(CC1)CN/C(=C1\C(=O)N(C(C)C)c3ccc(NC(C)C)cc31)CO2 [Compound 34] | 48
29 | CC(C)Nc1ccc2c(c1)/C(=C1\COCCN1)C(=O)N2C(C)C [Compound 44] | 44
30 | O=C1/C(=C2/COCCN2)c2cc(N3CCCC3)ccc2N1C1CCOCC1 [Compound 117] | 738
31 | CN(C)c1ccc2c(c1)/C(=C1/NCCN1c1ccccc1)C(=O)N2C [Compound 106] | 327
32 | CC(C)N1C(=O)/C(=C2/COCCN2)c2cc(NC3CCC(F)(F)CC3)ccc21 [Compound 72] | 140
33 | CC1CCC(C)N1c1ccc2c(c1)/C(=C1\COCCN1)C(=O)N2C1CCOCC1 (stereo not drawn) [Compound 156] | 77
34 | CC(Nc1ccc2c(c1)/C(=C1\COCCN1)C(=O)N2C(C)C)c1ccccn1 (stereo not drawn) [Compound 71] | 93
35 | CC(C)C(C)Nc1ccc2c(c1)/C(=C1\COCCN1)C(=O)N2C1COCCOC1 (stereo not drawn) [Compound 27] | 162
36 | CC(C)N1C(=O)/C(=C2/CCCCN2)c2cc(N3CCOCC3)ccc21 [Compound 158] | 243
37 | CC(C)Nc1ccc2c(c1)/C(=C1\COCCN1)C(=O)N2[C@H]1CCN(C(C)C)C1 [Compound 31] | 81
38 | CC(C)N1C(=O)/C(=C2/CCOCCN2)c2cc(NC3CCC3)ccc21 [Compound 22] | 87
39 | CC(C)N1CCN/C(=C2\C(=O)N(C)c3ccc(N4CCCC4)cc32)C1 [Compound 23] | 137
40 | O=C1/C(=C2/CCOCCN2)c2cc(NC3CCCC3)ccc2N1C1CCOCC1 [Compound 13] | 84
41 | CN(C)c1ccc2c(c1)/C(=C1\CCCCN1)C(=O)N2C [Compound 62] | 81
42 | CN1C(=O)/C(=C2/CCN(C3COC3)CCN2)c2cc(N3CCCC3)ccc21 [Compound 45] | 259
43 | COCC(C)Nc1ccc2c(c1)/C(=C1\COCCN1)C(=O)N2C1COC1 (stereo not drawn) [Compound 137] | 138
44 | O=C1/C(=C2/COCCN2)c2cc(NC3CCOC3)ccc2N1C1CCOC1 (stereo not drawn) [Compound 168] | 41

Row | Structure (SMILES) | IC50 [nM]
45 | CC(=O)N1CCC(Nc2ccc3c(c2)/C(=C2\COCCN2)C(=O)N3C(C)C)CC1 [Compound 172] | 78
46 | O=C1/C(=C2/COCCCN2)c2cc(NC3CCOC3)ccc2N1C1CCOCC1 (stereo not drawn) [Compound 141] | 104
47 | CC(C)C(C)Nc1ccc2c(c1)/C(=C1\COCCN1)C(=O)N2C(C)C (stereo not drawn) [Compound 95] | 151
48 | CN(C)c1ccc2c(c1)/C(=C1\CCCCCN1)C(=O)N2C [Compound 105] | 64
49 | CC(=O)N1CCC2(CC1)CN/C(=C1\C(=O)N(C(C)C)c3ccc(N4CCCC4)cc31)CO2 [Compound 53] | 233
50 | Nc1ccc2c(c1)/C(=C1\CCCN1)C(=O)N2C1CCOCC1 [Compound 83] | 11
51 | CC(=O)N1CC[C@H](N2C(=O)/C(=C3/COCCN3)c3cc(NC(C)C)ccc32)C1 [Compound 170] | 23
52 | CC(C)N1C(=O)/C(=C2/COCCN2)c2cc(N3CCCC3)ccc21 [Compound 130] | 877
53 | O=C1/C(=C2/COCCN2)c2cc(NCC3CC3)ccc2N1C1CCOCC1 [Compound 103] | 76
54 | CC(C)Nc1ccc2c(c1)/C(=C1\CCCCN1)C(=O)N2C(C)C [Compound 133] | 49
55 | CC(C)N1C(=O)/C(=C2/COCCN2)c2cc(NC(C)C(C)(C)C)ccc21 (stereo not drawn) [Compound 55] | 307
56 | CCC(CC)Nc1ccc2c(c1)/C(=C1\COCCN1)C(=O)N2C1CCOCC1 [Compound 76] | 43
57 | CC(C)Nc1ccc2c(c1)/C(=C1\COCCN1)C(=O)N2C1CCOCC1 [Compound 3] | 77
58 | CC(C)N1C(=O)C(=C2CCOCC2)c2cc(NC3CCCC3)ccc21 [Compound 116] | 539
59 | O=C1/C(=C2/COCCN2)c2cc(NC3CCC(F)(F)CC3)ccc2N1C1CCOCC1 [Compound 78] | 89
60 | CC(C)N1CCC(Nc2ccc3c(c2)/C(=C2\COCCN2)C(=O)N3C(C)C)CC1 [Compound 96] | 63
61 | O=C1/C(=C2/COCCN2)c2cc(NC3CCOCC3)ccc2N1C1CCOC1 (stereo not drawn) [Compound 32] | 31
62 | O=C1/C(=C2/CC3(CN2)COC3)c2cc(NC3CCOC3)ccc2N1C1CCOCC1 (stereo not drawn) [Compound 70] | 193
63 | O=C1/C(=C2/CCN(C3COC3)CCN2)c2cc(N3CCCC3)ccc2N1C1CCOCC1 [Compound 121] | 75
64 | CC(Nc1ccc2c(c1)/C(=C1\COCCN1)C(=O)N2C(C)C)C1CC1 (stereo not drawn) [Compound 97] | 344
65 | CC(=O)N1CCN/C(=C2\C(=O)N(C3CCOCC3)c3ccc(N4CCCC4)cc32)CC1 [Compound 12] | 194
66 | CC(C)Nc1ccc2c(c1)/C(=C1\COCCN1)C(=O)N2C1CCOC1 (stereo not drawn) [Compound 163] | 172

Row | Structure (SMILES) | IC50 [nM]
67 | CC(Nc1ccc2c(c1)/C(=C1\COCCN1)C(=O)N2C1CCOCC1)C1CCCC1 (stereo not drawn) [Compound 61] | 343
68 | CC(Nc1ccc2c(c1)/C(=C1\COCCN1)C(=O)N2C(C)C)c1cccnc1 (stereo not drawn) [Compound 15] | 96
69 | CC1CCC(C)N1c1ccc2c(c1)/C(=C1\CCOCCN1)C(=O)N2C1CCOCC1 (stereo not drawn) [Compound 29] | 132
70 | O=C1/C(=C2/COCCN2)c2cc(NC3CCC3)ccc2N1C1COC1 [Compound 51] | 135
71 | CC(Nc1ccc2c(c1)/C(=C1\COCCN1)C(=O)N2C(C)C)c1cncnc1 (stereo not drawn) [Compound 126] | 85
72 | CN(C)c1ccc2c(c1)/C(=C1\CCCN1)C(=O)N2C1CCOCC1 [Compound 42] | 42
73 | O=C1C(=C2CCOCC2)c2cc(N3CCCC3)ccc2N1C1CCOCC1 [Compound 112] | 352
74 | CC(Nc1ccc2c(c1)/C(=C1\COCCN1)C(=O)N2C(C)C)c1nccs1 (stereo not drawn) [Compound 144] | 49
75 | CC(Nc1ccc2c(c1)/C(=C1\COCCN1)C(=O)N2C1CCOCC1)C1CC1 (stereo not drawn) [Compound 20] | 73
76 | CC(C)N1C(=O)/C(=C2/COCCN2)c2cc(NC3CCOCC3)ccc21 [Compound 36] | 150
77 | CC(C)N1C(=O)C(=C2CCOCC2)c2cc(N3CCCC3)ccc21 [Compound 7] | 350
78 | CN1C(=O)/C(=C2/COCCN2)c2cc(NC3CCC3)ccc21 [Compound 154] | 193
79 | CC(C)Nc1ccc2c(c1)/C(=C1\CN(C3CCOCC3)CCN1)C(=O)N2C(C)C [Compound 134] | 62
80 | CC(C)N1C(=O)/C(=C2/COCCN2)c2cc(N3CCOCC3)ccc21 [Compound 166] | 75
81 | CC1CCC(C)N1c1ccc2c(c1)/C(=C1\COCCCN1)C(=O)N2C1CCOCC1 (stereo not drawn) [Compound 142] | 116
82 | CC(C)N1C(=O)C(=C2CCOCC2)c2cc(N)ccc21 [Compound 157] | 691
83 | CC1CCCC1Nc1ccc2c(c1)/C(=C1\COCCN1)C(=O)N2C(C)C (stereo not drawn) [Compound 124] | 259
84 | O=C1/C(=C2/CCOCCN2)c2cc(NC3CCC3)ccc2N1C1CCOCC1 [Compound 120] | 235
85 | CC1CCC(C)N1c1ccc2c(c1)/C(=C1\COCCN1)C(=O)N2C1CCOC1 (stereo not drawn) [Compound 162] | 464
86 | CC(Nc1ccc2c(c1)/C(=C1\COCCN1)C(=O)N2C1CCOCC1)c1cncnc1 (stereo not drawn) [Compound 147] | 69
87 | CCC(C)Nc1ccc2c(c1)/C(=C1\COCCN1)C(=O)N2C1CCOCC1 (stereo not drawn) [Compound 59] | 122
